# Patent US20190008919A1, “ETA RECEPTOR ANTAGONISTS AND METHODS OF USING THE SAME TO TREAT CARDIOVASCULAR DISORDERS AND DISEASE” (priority 2017, published 2019)
# Non-standard residues stand in square brackets, D forms with d. Residues, ends and D or L forms follow the SMILES beside them.
# Key:
# [1] = test system: aortic stiffening-induced hypertension rat model; test: Pressure, pulse wave velocity and peripheral flow measurement in aortic NCR (aortic stiffening-induced hypertension) rats; format: in vivo, Wistar rats
# Description: (§1) Twenty seven Wistar rats at age of 17-18 weeks were randomly divided into three groups. Group 1 (n=10) underwent aortic NCR for 12 weeks and was terminated at the end of 12 weeks. Group 2 (n=9) underwent aortic NCR for 12 weeks, then received continuous BQ-123 infusion for 3 weeks. The animals were terminated at the end of 15 weeks. Group 3 (n=8) was used as the sham-operated control for groups 1 and 2. All animal experiments were performed in accordance with national and local ethical guidelines, including the Institute of Laboratory Animal Research guidelines, Public Health Service policy, the Animal Welfare Act, as approved by Institutional Animal Care and Use Committee at California Medical Innovations Institute, San Diego.
# Animals were anesthetized with 1-2% isoflurane by air inhalation. A pressure catheter (Mikro-tip SPR-407, Millar Instruments, Houston, Tex.,) was inserted in the aortic arch (proximal site) via the right carotid artery. Heparin (200 U/ml) was used to prevent blood clots in the vessels. Another pressure transducer (Mikro-tip SPR-671) was advanced retrogradely into the abdominal aorta (distal site) via the right femoral artery. The central and peripheral aortic blood pressure waveforms were recorded from these two locations simultaneously during the procedure. A branch (400˜500 μm in diameter) of the left femoral artery was exposed carefully. A flow probe (0.5 mm ID) connected to a flow meter (Transonic systems, Ithaca, N.Y.) was then placed around it and local flow rate was recorded for at least 30 minutes. Following the measurement of blood pressure, the small cuts for cannulation on the carotid and femoral arteries were repaired by 11-0 sutures to restore flow.
# A laparotomy (about 3.0 cm) was performed. The distal abdominal aorta between renal and common iliac artery was carefully exposed and tissue glue (cyanoacrylate formulation, Dermabond, Ethicon, NJ) was coated over a length of the aorta. After allowing 5-10 minutes for the glue to harden, a stiff coating formed and covered the anterior and bilateral sides of the aorta with an axial length of 3.0-3.5 cm. The sham group underwent an identical surgical procedure, but without application of glue on the aorta (i.e., the same amount of glue was left near the aorta area with no direct contact with the aorta).
# (§2) Rats in group 2 received continuous BQ-123 infusion (1 mg/kg/day) for 21 days through Osmotic minipump implantation after 12 weeks of aortic NCR. BQ-123 (Peptides International Inc., Louisville, Ky.) was dissolved in saline containing 0.5% dimethyl sulphoxide (DMSO). The Osmotic minipump (model 2002, Durect Corporation, CA) was subcutaneously implanted on the side of abdomen in rats. Sham rats received continuous saline infusion through Osmotic minipumps for 21 days.
# Pulse wave velocity (PWV) calculation is based on the difference in arrival times of the pressure wave at the proximal (aorta arch) and distal (abdominal aorta) locations. Since the pressure transducer is visible on radiographs, the propagation distance between the proximal and distal site was obtained by imaging the animal with the two transducers implantation under an X-ray machine (Philips Fluoroscopy System, FIG. 1). PWV (m/s) was calculated by dividing the propagation distance by the difference among the two arrival times (transit time).
# The reverse to forward flow ratio (indicative of the extent of peripheral flow reversal) in peripheral small artery was calculated as: R/F ratio=Qrev/Qfwd×100(%), where Qrev and Qfwd are the reverse and forward peak flow rate, respectively (as shown in FIG. 3A). […]
# [2] = test system: peripheral small arteries; test: Endothelial function of peripheral small arteries (isovolumic myograph, ex vivo) after in vivo treatment; set-up: species or system Wistar rats
# Description: as §2
# (§3) After measurement of pressure and flow from a branch of femoral artery, water-resistant carbon particles were used to mark the same vessel segment (400˜500 μm in diameter) to measure axial changes as described in a publication by Guo et al. The external geometry of the arterial segment was photographed to obtain the outer diameter and in vivo axial length with the aid of a dissecting microscope. The arterial segment was than harvested for endothelial function and mechanical testing and histological analysis. The heart was harvested to calculate the wet weight.
# An isovolumic myograph recently developed by our group was used to evaluate the endothelium-dependent vasorelaxation. The small peripheral arterial segment was cannulated on both ends in a physiological bath with HEPES physiologic saline solution (HEPES-PSS, concentration in mmol/l: 142 NaCl, 4.7 KCl, 2.7 sodium HEPES, 3 HEPES acid, 0.15 NaHPO4, 1.17 MgSO4, 2.79 CaCl^2, and 5.5 glucose, solution gassed by 95% O2 plus 5% CO2) and stretched to in situ length. The pressure and external diameter were measured with a pressure transducer (Mikro-Tip SPR-524; Millar Instruments) and a digital diameter tracking (DiamTrak v3+; Australia), respectively. The vessel segment was pre-constricted with phenylephrine (PE) by a series of doses (10^−10 to 10^−5 mol/L in the PSS), and then relaxed with acetylcholine (ACh) by a series of doses: 10^−10 to 10^−5 mol/L. The endothelium-independent relaxation to sodium nitroprusside (SNP, 10^−5 mol/L) was measured to verify the sensitivity of vascular smooth muscle to NO. The overall contractility of vessel was tested with potassium chloride (KCl) at 60 mmol/L. Contraction was expressed as percentage of the response to KCl. Relaxation was expressed as percentage of pre-contraction to PE.
# Results were shown as mean±standard error of mean (mean±SEM). The significance of the differences between two groups was evaluated by either t-test or One-way ANOVA. For each dose-response curve to agents, the maximum effect (Emax) and bolus dose that produced half-maximal relaxation or contraction (expressed as pED50) were obtained by fitting the experimental data with a sigmoidal dose response curve. A least-squares fitting function, FindFit (Wolfram Mathematica software, Illinois, USA) was used. Significant differences among the three groups for dose-dependent curves (FIGS. 10B and 7A) were determined by Two-way ANOVA (SigmaStat, California, USA). The results were considered statistically significant when P<0.05 (2-tailed).
# [3] = test system: peripheral small arteries; test: Mechanical tests and morphometry of peripheral small arteries; format: in vivo, Wistar rats
# Description: as §2, §3
# The peripheral arterial segment was cannulated on both ends and fully relaxed in Ca^2+ free HEPES-PSS. The arterial segment was preconditioned with five cyclic changes in pressure from 0 to 140 mmHg. The pressure was then increased in 20 mmHg step increments from 20 to 140 mmHg in a staircase manner. The passive pressure-diameter relation was recorded. After the mechanical testing, the vessel segment was cut transversely into three or four rings. Each ring was photographed in the no-load state and then cut radially by a scissor to reveal the zero-stress state. The cross section of each sector was photographed 30 minutes after the radial cut (details in Guo et al.). The morphological measurements of the in vitro axial length, inner and outer circumference, wall thickness (WT), and area in the no-load and zero-stress state were made from the images using a morphometric analysis system (SigmaScan).
# The loaded inner radius of vessel was determined from the incompressibility assumption. The incompressibility condition for a cylindrical vessel can be expressed as:
# where ro and ri are the outer and inner radii at the loaded state, respectively. λZ=l/lo is the stretch ratio in the axial direction where l and lo are the vessel length in the loaded and no-load state, respectively and Ao is the wall area in the no-load state. The wall thickness, WT at the loaded state was computed as the difference between the outer and inner radius of the vessel at various pressures as:
# The volume compliance (CV) of the artery was determined by the slope of the pressure-volume relationship; i.e., CV=ΔV/ΔP. […] The normalized CSA compliance (CCSA) was determined similarly as CCSA=ΔCSA/(ΔP·CSA) at the physiological pressure as described in our previous publication.
# [4] = test system: peripheral small arteries; test: Elastin and collagen contents by multiphoton microscopy; format: in vivo, Wistar rats
# Description: as §2
# The elastin and collagen in small peripheral arteries were imaged by using a Multiphoton microscope (MPM) as described by Huan et al. Briefly, the arterial segment was fixed with 4% paraformaldehyde in phosphate buffer for 4 hours. The vessel was then transferred to a cryomold containing OCT embedding medium, and frozen in liquid nitrogen. Frozen transverse sections (7 μm) were cut onto glass slide and visualized by the MPM with a combined SHG/TPEF setup (Zeiss LSM 710 NLO). Serial optical sections were simultaneously captured by using the 520 nm line for elastin and the 415 nm line for collagen. All the images were taken under identical conditions of laser intensity, brightness, and contrast. Fluorescence intensity values were used as estimates of elastin and collagen concentration and quantitatively analyzed by Image J.
# ET-1 = test: Serum ET-1 level (ELISA); format: in vivo, Wistar rats; conditions: FIG. 6; not significantly different from the sham
# Description: as §2
# Blood samples were collected in ethylenediaminetetraacetic acid (EDTA) tubes for all experimental rats. After centrifugation at 5000 rpm and 4° C. for 15 min, serum was immediately separated and stored at −80° C. until analysis. The circulating level of ET-1 in serum was measured by ELISA kit (R&D system, MN).
# left ventricle = test: Heart and left ventricle weights; format: in vivo, Wistar rats; conditions: compared to sham
# Description: as §2, §3
# Body weight = format: in vivo, Wistar rats; conditions: Exp rats, 12 weeks aortic NCR then BQ-123 1 mg/kg/day continuous infusion 3 weeks; mean ± SEM
# Description: as §1, §2
# [5] = Exp rats, 12 weeks aortic NCR then BQ-123 1 mg/kg/day infusion 3 weeks, mean ± SEM
# [6] = branch of femoral artery, Exp rats, 12 weeks aortic NCR then BQ-123 infusion 3 weeks, mean ± SEM
smiles,measurement,setting,value
"CC(C)C[C@@H]1NC(=O)[C@@H](C(C)C)NC(=O)[C@@H]2CCCN2C(=O)[C@@H](CC(=O)O)NC(=O)[C@@H](Cc2c[nH]c3ccccc23)NC1=O [BQ-123, 2-[(3R,6R,9S,12R,15S)-6-(1H-indol-3-ylmethyl)-9-(2-methylpropyl)-2,5,8,11,14-pentaoxo-12-propan-2-yl-1,4,7,10,13-pentazabicyclo[13.3.0]octadecan-3-yl]acetic acid] (cyclo(L[dW][dD]P[dV]))","Central aortic blood pressure, Diastolic pressure",[1]; [5],94.8 ± 3.2 mmHg
same,"Central aortic blood pressure, Mean pressure",[1]; [5],115.0 ± 3.8 mmHg
same,"Central aortic blood pressure, Pulse pressure",[1]; [5],38.5 ± 1.8 mmHg
same,"Central aortic blood pressure, Systolic pressure",[1]; [5],133.3 ± 3.9 mmHg
same,Heart rate,[1]; [5],353.0 ± 6.9 beats/min
same,PWV,[1]; [5],4.1 ± 0.3 m/s
same,"Peripheral aortic blood pressure, Diastolic pressure",[1]; [5],87.6 ± 3.5 mmHg
same,"Peripheral aortic blood pressure, Mean pressure",[1]; [5],108.0 ± 4.5 mmHg
same,"Peripheral aortic blood pressure, Pulse pressure",[1]; [5],45.8 ± 2.1 mmHg
same,"Peripheral aortic blood pressure, Systolic pressure",[1]; [5],133.4 ± 5.1 mmHg
same,wall shear stress (WSS) in peripheral small arteries,"[1]; FIG. 3B, after 3 weeks BQ-123 in NCR rats",returned to the sham level
same,Reverse/forward flow ratio,"[1]; Qrev/Qfwd×100, Exp rats, 12 weeks aortic NCR then BQ-123 infusion 3 weeks, mean ± SEM",7.6 ± 1.4 %
same,"Peripheral flow rate, Forward flow",[1]; [6],0.34 ± 0.04 mL/min
same,"Peripheral flow rate, Mean flow",[1]; [6],0.099 ± 0.008 mL/min
same,"Peripheral flow rate, Reverse flow",[1]; [6],-0.026 ± 0.007 mL/min
same,endothelium-dependent vasodilation in response to acetylcholine (dose-response curve),"[2]; FIG. 7A, vs aortic NCR group, p<0.05, 2-way ANOVA",totally recovered
same,contractions to phenylephrine (PE),"[2]; FIG. 10B, vs sham and aortic NCR",did not affect this response
same,vascular contraction to potassium chloride (KCl),"[2]; KCl 60 mmol/L, among the 3 groups, FIG. 10C",no significant difference
same,maximal endothelium-independent relaxation to sodium nitroprusside (SNP),"[2]; SNP 10^−5 mol/L, arteries of BQ-123 treated NCR rats (sham 96%, NCR 74%)",98%
same,Emax,"[2]; acetylcholine concentration-response curve, PE pre-contracted peripheral small arteries of BQ-123 treated NCR rats, mean ± SEM",88.5 ± 7.9%
same,Phenylephrine Emax (%),"[2]; phenylephrine concentration-response curve, peripheral small arteries of BQ-123 treated NCR rats, mean ± SEM",72.4 ± 6.3 negative log mol/L
same,"wall thickness (WT, intima-media thickness)","[3]; compared to NCR group, not statistically significant, FIG. 4A",downward trend
same,wall thickness-to-radius (WTTR) ratio,"[3]; compared to NCR group, not statistically significant, FIG. 4B",downward trend
same,normalized CSA compliance,"[3]; compared with NCR group p=0.02, not fully restored vs sham (p=0.06), FIG. 4C",significantly increased
same,outer diameter of the peripheral small arteries,"[3]; sham, NCR and BQ-123 groups, FIG. 10A",no changes
same,total collagen content of peripheral arteries,"[4]; FIG. 5B, after 3 weeks BQ-123",returned to normal levels
same,elastin to collagen ratio,"[4]; FIG. 5C, after 3 weeks of treatment",restored to normal levels
same,total elastin contents,"[4]; between NCR, BQ-123 treatment and sham groups",No difference
same,serum ET-1 level,ET-1,restored to pre-intervention level
same,wet weights of the hearts,left ventricle,did not change
same,LV weight/heart weight ratio (LV/HW),"left ventricle; p<0.05, FIG. 2",significant increase
same,Body Weight,Body weight,641.3 ± 18.9 g
